According to PMC9886550, “Molecular mechanism of topoisomerase poisoning by the peptide antibiotic albicidin” (Nature Catalysis, 2023):

What was measured:
[1] = type: physicochemical; conditions: 100 µM in Topo IV assays
Protocol: Supplementary Figure 11. Activity of albicidin and Albi-1/2/3 on E. coli topoisomerase IV. a. Plasmid relaxation activity of E. coli topo IV in the presence of albicidin, Albi-1, Albi-2 and Albi-3. First lane: negatively supercoiled pBR322; second lane: innate relaxation activity of E. coli topo IV (12.5 nM); third lane: effect of 20 µM CFX; subsequent lanes: effect of increasing compound concentration (0.1, 1, 10, 100 […]
higher concentration. b. Cleavage activity of E. coli topo IV in the presence of albicidin, Albi-1, Albi-2 and Albi-3. First lane: negatively supercoiled pBR322; second lane: innate cleavage activity of E. coli topo IV (15 nM); third lane: effect of 20 µM CFX; subsequent lanes: effect of increasing compound concentration (0.1, 1, 10, 100 µM). […]
concentration. All experiments were carried out in triplicates and representative gels […]
(1 picture or pasted object on this page, not shown here)

E. coli gyrase = target: T1, E. coli gyrase (Escherichia coli, UniProt P0AES4+P0AES6); test: Gyrase cleavage of linear DNA fragments (Mu217 and others); type: biochemical; conditions: 1 µM albicidin
T1 construct: alternative cryo-EM approach involving full-length E. coli gyrase; 10-His (cleaved yes); Twin-Strep (cleaved yes); made in house
Protocol: Mu217 DNA (25 nM) was incubated with 0.4 µM gyrase and indicated concentrations (1 or 10 µM) of diazirine-labelled albicidin (photo-Albi, φAlbi) in a volume of 20 µl (~70 ng DNA) at 37 °C for 30 min in gyrase cleavage buffer (see section 'Topoisomerase assays'). For CFX competition experiments, 30 µM CFX was added first, followed by the albicidin. Reactions were either irradiated with ultraviolet 365 nm (benchtop transilluminator) with cooling (ice) for 30 min or left on ice for 30 min (‘dark’). Then, 0.2% SDS and 0.2 mg ml^−1 proteinase K were added to both samples, which were incubated for another 30 min. Reactions were mixed with loading dye (STEB) and chloroform:isoamyl alcohol (24:1 v/v) before vortexing and centrifugation. The aqueous phase was loaded on 4–20% TBE (Tris–borate–EDTA) polyacrylamide gel (Thermo) and ran for 1 h at 150 V. DNA was visualized with SYBR Gold (Thermo) staining.
Extended Data Fig. 1 Length dependency of albicidin-mediated DNA cleavage. Position of cleaved DNA indicated by arrows and red dots. ATP and ADPNP were added as indicated, (----) stands for no nucleotide added. 20 nM gyrase, 1 µM albicidin and 25 nM DNA was used in each reaction.
Extended Data Fig. 5 Photocrosslinking of diazirine-labelled albicidin (photo-Albi) to the DNA. a. Structures of N-terminal photo-Albi and control compound. b. DNA cleavage assay with Mu217 fragment and indicated concentrations of compounds. The labelled DNA band appearing upon irradiation of a photo-compound when bound to the complex is marked by a yellow star. c. Ciprofloxacin competition experiment. Pre-incubation with excess CFX prevents albicidin binding and crosslinking. Details of the experiment are available in Methods section.

T1 sequence (P0AES4 whole entry, the tested form may be a part, one chain of several): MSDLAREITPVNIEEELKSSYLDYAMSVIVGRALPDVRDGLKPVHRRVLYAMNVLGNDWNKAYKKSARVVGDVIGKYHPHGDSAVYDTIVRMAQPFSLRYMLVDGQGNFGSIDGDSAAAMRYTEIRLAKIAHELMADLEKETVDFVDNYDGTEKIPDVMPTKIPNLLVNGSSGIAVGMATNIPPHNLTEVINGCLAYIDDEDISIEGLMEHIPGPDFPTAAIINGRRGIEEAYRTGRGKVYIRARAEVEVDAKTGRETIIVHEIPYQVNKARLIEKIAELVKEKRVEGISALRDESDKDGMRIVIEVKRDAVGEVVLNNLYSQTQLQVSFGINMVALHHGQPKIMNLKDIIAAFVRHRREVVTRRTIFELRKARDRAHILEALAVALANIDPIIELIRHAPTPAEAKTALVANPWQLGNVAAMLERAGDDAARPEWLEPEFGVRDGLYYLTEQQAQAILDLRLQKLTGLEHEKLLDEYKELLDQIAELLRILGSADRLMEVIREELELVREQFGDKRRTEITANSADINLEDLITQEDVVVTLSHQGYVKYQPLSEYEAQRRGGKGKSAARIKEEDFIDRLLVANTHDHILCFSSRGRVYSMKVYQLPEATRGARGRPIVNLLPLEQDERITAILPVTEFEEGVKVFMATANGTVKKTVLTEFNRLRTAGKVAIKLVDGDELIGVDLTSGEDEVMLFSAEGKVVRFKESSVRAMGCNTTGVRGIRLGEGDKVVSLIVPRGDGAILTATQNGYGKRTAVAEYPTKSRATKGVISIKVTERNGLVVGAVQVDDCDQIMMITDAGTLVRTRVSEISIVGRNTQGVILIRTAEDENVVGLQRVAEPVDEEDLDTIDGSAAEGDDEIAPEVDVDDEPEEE

For `COc1c(NC(=O)c2ccc(NC(=O)c3ccc(NC(=O)[C@H](Cc4c[nH]nn4)NC(=O)c4ccc(NC(=O)c5ccc6nc(C)ccc6c5)cc4)cn3)c(OC)c2O)ccc(C(=O)O)c1O` [Albi-3], the solubility in assay [1] was “solubility issues”.
In the case of `COc1c(NC(=O)c2ccc(NC(=O)c3ccc(NC(=O)[C@H](CC#N)NC(=O)c4ccc(NC(=O)/C(C)=C/c5ccc(O)cc5)cc4)cc3)c(OC)c2O)ccc(C(=O)O)c1O` [Albicidin], the “cleavage of DNA fragments” value (E. coli gyrase; fragments shorter than 150 bp or absence of a nucleotide) is reported as “almost no cleavage” and the “cleavage of the 217 bp Mu SGS fragment (Mu217)” value (E. coli gyrase; in the presence of ATP or ADPNP) is reported as “strong cleavage”.
